Source: paper PMC7614683, “A small molecule PI3Kα activator for cardioprotection and neuroregeneration” (Nature, 2023)

What was measured:
[1] = system: 133 protein kinases and 7 lipid kinases; assay: SelectScreen kinase profiling, whole panel; assay type: biochemical; settings: 1 μM of 1938
Experimental: 133 protein kinases and 7 lipid kinases were counterscreened, with 1938 used at 1 μM, using the Adapta, Lantha and Z-LYTE assays (SelectScreen Kinase Profiling Service; Thermofisher – experimental details of these assays can be found here: https://www.thermofisher.com/uk/en/home/industrial/pharma-biopharma/drug-discovery-development/target-and-lead-identification-and-validation/kinasebiology/kinase-activity-assays.html. The tree represention in KinMap[59] generated courtesy of Cell Signaling Technology, Inc. (www.cellsignal.com). mTORC1 (mTOR/RAPTOR/LST8) protein complex and ATM kinase and substrates were produced as previously described[57],[60]. Screening of 1938 was conducted using SuperSep Phos-Tag 50 μmol/l 100 x 100 x 6.6 mm 17-well (192-18001/199-18011) gels. For ATM assays, 100 nM ATM was incubated for 30 min at 30°C with 5 μM GST-p53 and 1 mM ATP, in the absence or presence of 200 μM 1938 in ATM Kinase Buffer (50 mM HEPES pH 7.5, 100 mM NaCl, 10% glycerol, 2 mM […], 5 mM MgCl2). As a positive control for ATM activation, the same reaction was carried out with 100 nM ATM/5 μM GST-p53/1 mM ATP in the presence of 100 nM Mre11-Rad50-Nbs1 (MRN) complex, a known activator of ATM[61]. […] Gels were then stained using InstantBlue™ Coomassie, and quantified using BioRad Image Lab Software. […]

[2] = system: rat sciatic nerve; assay: pAkt generation in exposed rat sciatic nerves; assay type: in vivo; settings: direct injection or bathing, 1938 5 μM, 30 min
Experimental: To assess if 1938 could induce pAkt generation in exposed rat sciatic nerves, adult male Sprague Dawley rats (>250g; n=2) were anaesthetised using isoflurane, the left sciatic nerve was exposed and injected with 2 μl vehicle (sterile dH2O) or 1938 (5 μM in sterile dH2O). Meanwhile the right sciatic nerve was exposed and bathed in 250 μl of vehicle (sterile dH2O) or 1938 (5 μM in sterile dH2O). Each animal received one vehicle and one compound treatment. The treatments were left on for 30 min prior to washing the bathed nerves with sterile PBS and culling via sodium pentobarbital injection according to local regulations. Nerves were then harvested, washed in fresh 4°C PBS and stored in a fresh vial before snap freezing in liquid nitrogen. Frozen sciatic nerves were homogenised in RIPA buffer supplemented with protease and phosphatase inhibitors using a mortar and pestle homogeniser. The subsequent crude lysates were centrifuged at 10,000xg for 10 min at 4°C, the supernatant harvested and stored at -80°C prior to automated western blot (Wes) analysis for pAkt and controls (Extended Data Fig. 9a; bottom panel).

CCN1CCN(c2ccc(Nc3cc(Nc4cccc5c4N(C(C)=O)CC5)ccn3)cc2)CC1 [Compound 1938]
effect on PI3Kβ, PI3Kγ, PI3Kδ, PI3K-C2α, Vps34, PI4Kβ, mTOR and DNA-PK [1]: did not affect the activity | inhibition of 13 protein kinases of the panel [1]: 25-50% | pAKT in exposed sciatic nerves [2]: pAKT induction
